The values that follow are results of earlier work, collected in EP3331513B1, “HYDROALCOHOLIC SOLUTIONS COLOURED WITH CHLORHEXIDINE, METHODS FOR THE PRODUCTION THEREOF, AND USES OF SAME” (Université Claude Bernard Lyon I, priority 2015, dated 2017).

With `[H]/N=C(\N/C(=N/[H])NCCCCCCNC(=N)NC(=N)Nc1ccc(Cl)cc1)Nc1ccc(Cl)cc1` [digluconate de chlorhexidine], the “solubilité dans les alcools” value (alcools primaires en C2 et C3, notamment éthanol) was “assez soluble”. In addition, the “solubilité dans l'eau” value (eau) is reported as “miscible à l'eau”.
